Experimental data reported in patent US8304446B2, “Compounds” (Glaxo Group Limited, priority 2009, dated 2012).
Where a name gives a salt, the structure may show the parent alone.

Legend:
CD4+ CCR4+ T cells = experiment: Chemokine stimulated increases in cellular F-actin content; format: cell-based; conditions: Homo sapiens, T-cell, 0.5 h; PBMC from normal volunteers; antagonist 30 min at 37° C. before agonist for 15 sec; F-actin content by flow cytometry; read-out: pA2 (converted)
Procedure, shortened: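 Human PBMC from citrated volunteer blood, stained for CD4 and CCR4, were pre-incubated with antagonist or vehicle (0.1% DMSO) for 30 min at 37 °C, then stimulated with agonist for 15 s and formaldehyde-fixed. F-actin was stained with phalloidin and read by flow cytometry as CD4+CCR4+ MFI relative to CD4+CCR4− cells.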

CCR4 = biological target: T1, CCR4 (Homo sapiens, UniProt P51679); experiment: [35S]-GTPγS SPA binding assay for CCR4 antagonist activity; format: biochemical; conditions: CCR4 expressing CHO membranes; human MDC at EC80; [35S]-GTPγS competition
T1 construct: expressed in transfected cells; host or cells: CHO cell membranes
T1 sequence (P51679 1-360): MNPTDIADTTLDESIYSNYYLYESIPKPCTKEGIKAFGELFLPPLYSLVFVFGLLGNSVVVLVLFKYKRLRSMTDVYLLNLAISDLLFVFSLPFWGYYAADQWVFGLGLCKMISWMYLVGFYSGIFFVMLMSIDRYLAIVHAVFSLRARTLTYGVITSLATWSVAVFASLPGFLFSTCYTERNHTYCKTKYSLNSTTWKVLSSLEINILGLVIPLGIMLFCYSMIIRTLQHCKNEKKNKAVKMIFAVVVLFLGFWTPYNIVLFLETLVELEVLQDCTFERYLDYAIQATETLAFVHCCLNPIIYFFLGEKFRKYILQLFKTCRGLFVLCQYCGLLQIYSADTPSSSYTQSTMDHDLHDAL
Method: [35S]-GTPγS SPA Binding Assays for CCR4 Antagonist Activity
Antagonist potency was determined by a radioligand [35S]-GTPγS competition assay. Briefly, CCR4 expressing CHO membranes were homogenised by passing through a 23G needle. These membranes were then adhered to WGA-coated Leadseeker SPA beads in assay buffer (20 mM HEPES, 10 mM MgCl2, 100 mM NaCl, 0.05% BSA, 40 ug/ml Saponin and pH adjusted to 7.4 using KOH 5M) to generate a 3 μg/well final assay concentration (FAC) membrane and 250 μg/well FAC bead, solution.
The bead/membrane/[35S]-GTPγS/Agonist suspension was dispensed into white Greiner polypropylene 384-well plates (45 μl/well), containing 0.5 μl of compound. […] Plates were then read on a Viewlux instrument and luminescence was then plotted as a percentage of the maximum inhibitional response elicited by an IC100 of a standard antagonist.

Row | IC50 (CCR4) | Compound | Kb (CD4+ CCR4+ T cells)
1 | 3.98 to 15.8 nM | CN[C@@H](C)C(=O)NCc1cccc(Cn2nc(NS(=O)(=O)c3ccc(Cl)s3)c3c(OC)cccc32)c1 [Example 17, N^1-[(3-{[3-{[(5-chloro-2-thienyl)sulfonyl]amino}-4-(methyloxy)-1H-indazol-1-yl]methyl}phenyl)methyl]-N^2-methyl-L-alaninamide trifluoroacetate] | ≤ 126 nM
2 | 3.98 to 15.8 nM | COc1cccc2c1c(NS(=O)(=O)c1ccc(Cl)s1)nn2Cc1cccc(CNC(=O)[C@H](C)N)c1 [Example 18, N^1-[(3-{[3-{[(5-chloro-2-thienyl)sulfonyl]amino}-4-(methyloxy)-1H-indazol-1-yl]methyl}phenyl)methyl]-L-alaninamide trifluoroacetate] | ≤ 126 nM
3 | 3.98 to 15.8 nM | COc1cccc2c1c(NS(=O)(=O)c1ccc(Cl)s1)nn2Cc1cccc(CNC(=O)CC(N)=O)c1 [Example 21, N-[(3-{[3-{[(5-chloro-2-thienyl)sulfonyl]amino}-4-(methyloxy)-1H-indazol-1-yl]methyl}phenyl)methyl]propanediamide] | ≤ 126 nM
4 | 3.98 to 15.8 nM | COc1cccc2c1c(NS(=O)(=O)c1ccc(Cl)s1)nn2Cc1cccc(CNC(=O)C(C)CN)c1 (stereo not shown) [Example 26, 3-Amino-N-[(3-{[3-{[(5-chloro-2-thienyl)sulfonyl]amino}-4-(methyloxy)-1H-indazol-1-yl]methyl}phenyl)methyl]-2-methylpropanamide trifluoroacetate] | ≤ 126 nM
5 | 3.98 to 15.8 nM | COc1cccc2c1c(NS(=O)(=O)c1ccc(Cl)s1)nn2Cc1cccc(CNC(=O)[C@]2(C)CCCN2)c1 [Example 27, N-[(3-{[3-{[(5-chloro-2-thienyl)sulfonyl]amino}-4-(methyloxy)-1H-indazol-1-yl]methyl}phenyl)methyl]-2-methyl-L-prolinamide trifluoroacetate] | ≤ 126 nM
6 | 3.98 to 15.8 nM | COc1cccc2c1c(NS(=O)(=O)c1ccc(Cl)s1)nn2Cc1cccc(CNC(=O)[C@@H]2C[C@H](F)CN2)c1 [Example 28, (4S)—N-[(3-{[3-{[(5-chloro-2-thienyl)sulfonyl]amino}-4-(methyloxy)-1H-indazol-1-yl]methyl}phenyl)methyl]-4-fluoro-L-prolinamide trifluoroacetate] | ≤ 126 nM
7 | 3.98 to 15.8 nM | COc1cccc2c1c(NS(=O)(=O)c1ccc(Cl)s1)nn2Cc1cccc(CNC(=O)c2cn[nH]c2)c1 [Example 33, N-[(3-{[3-{[(5-Chloro-2-thienyl)sulfonyl]amino}-4-(methyloxy)-1H-indazol-1-yl]methyl}phenyl)methyl]-1H-pyrazole-4-carboxamide] | ≤ 126 nM
8 | 3.98 to 15.8 nM | COc1cccc2c1c(NS(=O)(=O)c1ccc(Cl)s1)nn2Cc1cccc(CNC(=O)C2CCOC2)c1 (stereo not shown) [Example 35, N-[(3-{[3-{[(5-Chloro-2-thienyl)sulfonyl]amino}-4-(methyloxy)-1H-indazol-1-yl]methyl}phenyl)methyl]tetrahydro-3-furancarboxamide] | ≤ 126 nM
9 | 3.98 to 15.8 nM | COc1cccc2c1c(NS(=O)(=O)c1ccc(Cl)s1)nn2Cc1cccc(CNC(=O)C(C)O)c1 (stereo not shown) [Example 37, N-[(3-{[3-{[(5-Chloro-2-thienyl)sulfonyl]amino}-4-(methyloxy)-1H-indazol-1-yl]methyl}phenyl)methyl]-2-hydroxypropanamide] | ≤ 126 nM
10 | 3.98 to 15.8 nM | COc1cccc2c1c(NS(=O)(=O)c1ccc(Cl)s1)nn2Cc1cccc(CNC(=O)C2CCOCC2)c1 [Example 43, N-[(3-{[3-{[(5-chloro-2-thienyl)sulfonyl]amino}-4-(methyloxy)-1H-indazol-1-yl]methyl}phenyl)methyl]tetrahydro-2H-pyran-4-carboxamide] | ≤ 126 nM
11 | 3.98 to 15.8 nM | COc1cccc2c1c(NS(=O)(=O)c1ccc(Cl)s1)nn2Cc1cccc(CNC(=O)[C@@H](N)Cc2cnc[nH]2)c1 [Example 44, N-[(3-{[3-{[(5-Chloro-2-thienyl)sulfonyl]amino}-4-(methyloxy)-1H-indazol-1-yl]methyl}phenyl)methyl]-L-histidinamide] | ≤ 126 nM
12 | 3.98 to 15.8 nM | COc1cccc2c1c(NS(=O)(=O)c1ccc(Cl)s1)nn2Cc1cccc(CNC(=O)[C@H](N)C(C)C)c1 [Example 48, N^1-[(3-{[3-{[(5-Chloro-2-thienyl)sulfonyl]amino}-4-(methyloxy)-1H-indazol-1-yl]methyl}phenyl)methyl]-D-valinamide] | ≤ 126 nM
13 | 3.98 to 15.8 nM | COc1cccc2c1c(NS(=O)(=O)c1ccc(Cl)s1)nn2Cc1cccc(CNC(=O)[C@@H]2CCCCN2)c1 [Example 51, (2S)—N-[(3-{[3-{[(5-Chloro-2-thienyl)sulfonyl]amino}-4-(methyloxy)-1H-indazol-1-yl]methyl}phenyl)methyl]-2-piperidinecarboxamide trifluoroacetate] | ≤ 126 nM
14 | 3.98 to 15.8 nM | COc1cccc2c1c(NS(=O)(=O)c1ccc(Cl)s1)nn2Cc1cccc(CNC(=O)[C@@H]2C[C@@H](F)CN2)c1 [Example 52, (4R)—N-[(3-{[3-{[(5-Chloro-2-thienyl)sulfonyl]amino}-4-(methyloxy)-1H-indazol-1-yl]methyl}phenyl)methyl]-4-fluoro-L-prolinamide trifluoroacetate] | ≤ 126 nM
15 | 3.98 to 15.8 nM | COc1cccc2c1c(NS(=O)(=O)c1ccc(Cl)s1)nn2Cc1cccc(CNC(=O)[C@H]2CC(F)(F)CN2)c1 [Example 55, N-[(3-{[3-{[(5-Chloro-2-thienyl)sulfonyl]amino}-4-(methyloxy)-1H-indazol-1-yl]methyl}phenyl)methyl]-4,4-difluoro-D-prolinamide trifluoroacetate] | ≤ 126 nM
16 | 3.98 to 15.8 nM | NC(=O)c1cccc(Cn2nc(NS(=O)(=O)c3ccc(Cl)s3)c3c(O)cccc32)c1 [Example 70, 3-[(3-{[(5-Chloro-2-thienyl)sulfonyl]amino}-4-hydroxy-1H-indazol-1-yl)methyl]benzamide] | ≤ 126 nM
17 | 3.98 to 15.8 nM | CN[C@H](C)C(=O)NCc1cccc(Cn2nc(NS(=O)(=O)c3ccc(Cl)s3)c3c(O)cccc32)c1 [Example 71, N^1-({3-[(3-{[(5-Chloro-2-thienyl)sulfonyl]amino}-4-hydroxy-1H-indazol-1-yl)methyl]phenyl}methyl)-N^2-methyl-D-alaninamide formic acid salt] | ≤ 126 nM
18 | 3.98 to 15.8 nM | CC(=O)NCc1cccc(Cn2nc(NS(=O)(=O)c3ccc(Cl)s3)c3c(O)cccc32)c1 [Example 72, N-({3-[(3-{[(5-Chloro-2-thienyl)sulfonyl]amino}-4-hydroxy-1H-indazol-1-yl)methyl]phenyl}methyl)acetamide] | ≤ 126 nM
19 | 3.98 to 15.8 nM | O=C(NCc1cccc(Cn2nc(NS(=O)(=O)c3ccc(Cl)s3)c3c(O)cccc32)c1)C1COCCN1 (stereo not shown) [Example 73, N-({3-[(3-{[(5-Chloro-2-thienyl)sulfonyl]amino}-4-hydroxy-1H-indazol-1-yl)methyl]phenyl}methyl)-3-morpholinecarboxamide formate salt] | ≤ 126 nM

Row | Compound | IC50 (CCR4) | Kb (CD4+ CCR4+ T cells)
20 | COc1cccc2c1c(NS(=O)(=O)c1ccc(Cl)s1)nn2Cc1cccc(CNC(=O)C(C)(C)O)c1 [Example 57, N-[(3-{[3-{[(5-Chloro-2-thienyl)sulfonyl]amino}-4-(methyloxy)-1H-indazol-1-yl]methyl}phenyl)methyl]-2-hydroxy-2-methylpropanamide] | 3.98 to 15.8 nM | ≤ 126 nM
